The source of these data is US11667649B2, “Heteroaromatic macrocyclic ether chemotherapeutic agents” (Nuvalent, Inc., priority 2020, dated 2023).

In the assay the test system is TPM3-NTRK1-wt IC50 / primary target (e.g. CD74-ROS1-wt) IC50, Ba/F3 cells. As to the kind of experiment: Cell assay TRKA selectivity (TRKA potency divided by primary target potency). Format: cell-based. The note with it: for TPM3-NTRK1-wt/CD74-ROS1-G2032R: TRKA selectivity ratio: TPM3-NTRK1-wt IC50 / CD74-ROS1-G2032R IC50, Ba/F3 cells; for TPM3-NTRK1-wt/CD74-ROS1-wt: TRKA selectivity ratio: TPM3-NTRK1-wt IC50 / CD74-ROS1-wt IC50, Ba/F3 cells; for TPM3-NTRK1-wt/EML4-ALK-L1196M-G1202R: TRKA selectivity ratio: TPM3-NTRK1-wt IC50 / EML4-ALK-L1196M-G1202R IC50, Ba/F3 cells; for TPM3-NTRK1-wt/EML4-ALK-wt: TRKA selectivity ratio: TPM3-NTRK1-wt IC50 / EML4-ALK-wt IC50, Ba/F3 cells. In short, it runs like this:
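IL-3-independent Ba/F3 lines stably expressing TPM3-TRKA or the primary fusion (e.g. CD74-ROS1 wt) were exposed to 3-fold compound dilutions for 72 h. Viability was read by CellTiter-Glo luminescence, with IC50 from four-parameter logistic fit. Selectivity is TPM3-NTRK1 IC50 divided by primary-target IC50, binned A (>30-fold) to D (<1).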

For the compound `CCn1ncc2c1-c1cnc(N)c(c1)O[C@H](C)c1cc(F)ccc1-c1nn(C(F)F)cc1C2` [Example 86, (19R)-10-(difluoromethyl)-3-ethyl-16-fluoro-19-methyl-20-oxa-3,4,10,11,23-pentaazapentacyclo[19.3.1.0^2,^6.0^8,^12.0^13,^18]pentacosa-1(24),2(6),4,8,11,13,15,17,21(25),22-decaen-22-amine], the TPM3-NTRK1-wt/CD74-ROS1-G2032R result is “B (bin B for high selectivity, ratio>10-fold)”; the TPM3-NTRK1-wt/CD74-ROS1-wt entry is “A (bin A for very high selectivity, ratio>30-fold)”; the TPM3-NTRK1-wt/EML4-ALK-L1196M-G1202R entry was “D (bin D for low selectivity, ratio<1)”; the TPM3-NTRK1-wt/EML4-ALK-wt result is on record as “C (bin C for moderate selectivity, ratio≥1)”.

In the case of `CCn1ncc2c1-c1cnc(N)c(c1)O[C@H](C)c1cc(F)ccc1-c1nn(C)c(C)c1C2` [Example 87, (19R)-3-ethyl-16-fluoro-9,10,19-trimethyl-20-oxa-3,4,10,11,23-pentaazapentacyclo[19.3.1.0^2,^6.0^8,^12.0^13,^18]pentacosa-1(24),2(6),4,8,11,13,15,17,21(25),22-decaen-22-amine], the TPM3-NTRK1-wt/CD74-ROS1-G2032R entry is recorded as “A (bin A for very high selectivity, ratio>30-fold)”; the TPM3-NTRK1-wt/CD74-ROS1-wt entry is “A (bin A for very high selectivity, ratio>30-fold)”; the TPM3-NTRK1-wt/EML4-ALK-L1196M-G1202R entry is “C (bin C for moderate selectivity, ratio≥1)”; the TPM3-NTRK1-wt/EML4-ALK-wt entry is “A (bin A for very high selectivity, ratio>30-fold)”.

Regarding `CCc1snc2c1-c1cnc(N)c(c1)O[C@H](C)c1cc(F)ccc1-c1nn(C)cc1C2` [Example 88, (19R)-3-ethyl-16-fluoro-10,19-dimethyl-20-oxa-4-thia-5,10,11,23-tetraazapentacyclo[19.3.1.0^2,^6.0^8,^12.0^13,^18]pentacosa-1(24),2,5,8,11,13,15,17,21(25),22-decaen-22-amine], the TPM3-NTRK1-wt/CD74-ROS1-G2032R entry is reported as “B (bin B for high selectivity, ratio>10-fold)”; the TPM3-NTRK1-wt/CD74-ROS1-wt result was “A (bin A for very high selectivity, ratio>30-fold)”; the TPM3-NTRK1-wt/EML4-ALK-L1196M-G1202R result was “C (bin C for moderate selectivity, ratio≥1)”; the TPM3-NTRK1-wt/EML4-ALK-wt entry was “A (bin A for very high selectivity, ratio>30-fold)”.

Consider `CCn1ncc2c1-c1cnc(N)c(c1)OCc1cc(F)ccc1-c1nc(C)sc1C2` [Example 89, 3-ethyl-16-fluoro-10-methyl-20-oxa-9-thia-3,4,11,23-tetraazapentacyclo[19.3.1.0^2,^6.0^8,^12.0^13,^18]pentacosa-1(24),2(6),4,8(12),10,13,15,17,21(25),22-decaen-22-amine], for which the TPM3-NTRK1-wt/CD74-ROS1-G2032R result is recorded as “A (bin A for very high selectivity, ratio>30-fold)”; the TPM3-NTRK1-wt/CD74-ROS1-wt result is “A (bin A for very high selectivity, ratio>30-fold)”; the TPM3-NTRK1-wt/EML4-ALK-L1196M-G1202R result was “B (bin B for high selectivity, ratio>10-fold)”; the TPM3-NTRK1-wt/EML4-ALK-wt result is “A (bin A for very high selectivity, ratio>30-fold)”.

`CCc1noc2c1-c1cnc(N)c(c1)O[C@H](C)c1cc(F)cc(F)c1-c1nn(C)cc1C2` [Example 90, (19R)-3-ethyl-14,16-difluoro-10,19-dimethyl-5,20-dioxa-4,10,11,23-tetraazapentacyclo[19.3.1.0^2,^6.0^8,^12.0^13,^18]pentacosa-1(24),2(6),3,8,11,13,15,17,21(25),22-decaen-22-amine]: the TPM3-NTRK1-wt/CD74-ROS1-G2032R result is listed as “A (bin A for very high selectivity, ratio>30-fold)”; the TPM3-NTRK1-wt/CD74-ROS1-wt result is “A (bin A for very high selectivity, ratio>30-fold)”; the TPM3-NTRK1-wt/EML4-ALK-L1196M-G1202R result was “C (bin C for moderate selectivity, ratio≥1)”; the TPM3-NTRK1-wt/EML4-ALK-wt result is on record as “A (bin A for very high selectivity, ratio>30-fold)”.

For `C[C@H]1Oc2cc(cnc2N)-c2c(cnn2CC2CC2)Cc2cc(C(F)(F)F)nn2-c2ccc(F)cc21` [Example 91, (19R)-3-(cyclopropylmethyl)-16-fluoro-19-methyl-10-(trifluoromethyl)-20-oxa-3,4,11,12,23-pentaazapentacyclo[19.3.1.0^2,^6.0^8,^12.0^13,^18]pentacosa-1(24),2(6),4,8,10,13,15,17,21(25),22-decaen-22-amine], the TPM3-NTRK1-wt/CD74-ROS1-G2032R result is recorded as “A (bin A for very high selectivity, ratio>30-fold)”; the TPM3-NTRK1-wt/CD74-ROS1-wt result is listed as “A (bin A for very high selectivity, ratio>30-fold)”; the TPM3-NTRK1-wt/EML4-ALK-L1196M-G1202R entry was “A (bin A for very high selectivity, ratio>30-fold)”; the TPM3-NTRK1-wt/EML4-ALK-wt entry is recorded as “A (bin A for very high selectivity, ratio>30-fold)”.

Regarding `CCn1ncc2c1-c1cnc(N)c(c1)OCc1cc(F)ccc1-n1nc(C(F)(F)F)cc1C2` [Example 92, 3-ethyl-16-fluoro-10-(trifluoromethyl)-20-oxa-3,4,11,12,23-pentaazapentacyclo[19.3.1.0^2,^6.0^8,^12.0^13,^18]pentacosa-1(24),2(6),4,8,10,13,15,17,21(25),22-decaen-22-amine], the TPM3-NTRK1-wt/CD74-ROS1-G2032R entry was “A (bin A for very high selectivity, ratio>30-fold)”; the TPM3-NTRK1-wt/CD74-ROS1-wt entry is given as “A (bin A for very high selectivity, ratio>30-fold)”; the TPM3-NTRK1-wt/EML4-ALK-L1196M-G1202R result is reported as “C (bin C for moderate selectivity, ratio≥1)”; the TPM3-NTRK1-wt/EML4-ALK-wt entry was “C (bin C for moderate selectivity, ratio≥1)”.

As to `CCn1nnc2c1-c1cnc(N)c(c1)O[C@H](C)c1cc(F)ccc1-c1sncc1C2` [Example 93, (19R)-3-ethyl-16-fluoro-19-methyl-20-oxa-11-thia-3,4,5,10,23-pentaazapentacyclo[19.3.1.0^2,^6.0^8,^12.0^13,^18]pentacosa-1(24),2(6),4,8(12),9,13,15,17,21(25),22-decaen-22-amine], the TPM3-NTRK1-wt/CD74-ROS1-G2032R entry is “A (bin A for very high selectivity, ratio>30-fold)”; the TPM3-NTRK1-wt/CD74-ROS1-wt result is listed as “A (bin A for very high selectivity, ratio>30-fold)”; the TPM3-NTRK1-wt/EML4-ALK-L1196M-G1202R entry is recorded as “C (bin C for moderate selectivity, ratio≥1)”; the TPM3-NTRK1-wt/EML4-ALK-wt entry was “B (bin B for high selectivity, ratio>10-fold)”.

Regarding `C[C@H]1Oc2cc(cnc2N)-c2c(C#N)nn(C)c2Cc2scnc2-c2ccc(F)cc21` [Example 94, (19R)-22-amino-16-fluoro-5,19-dimethyl-20-oxa-9-thia-4,5,11,23-tetraazapentacyclo[19.3.1.0^2,^6.0^8,^12.0^13,^18]pentacosa-1(24),2(6),3,8(12),10,13,15,17,21(25),22-decaene-3-carbonitrile], the TPM3-NTRK1-wt/CD74-ROS1-G2032R entry is “A (bin A for very high selectivity, ratio>30-fold)”; the TPM3-NTRK1-wt/CD74-ROS1-wt result is given as “A (bin A for very high selectivity, ratio>30-fold)”; the TPM3-NTRK1-wt/EML4-ALK-L1196M-G1202R entry is recorded as “A (bin A for very high selectivity, ratio>30-fold)”; the TPM3-NTRK1-wt/EML4-ALK-wt result was “A (bin A for very high selectivity, ratio>30-fold)”.

Take `CCn1nnc2c1-c1cnc(N)c(c1)O[C@H](C)c1cc(F)ccc1-c1nscc1C2` [Example 95, (19R)-3-ethyl-16-fluoro-19-methyl-20-oxa-10-thia-3,4,5,11,23-pentaazapentacyclo[19.3.1.0^2,^6.0^8,^12.0^13,^18]pentacosa-1(24),2(6),4,8,11,13,15,17,21(25),22-decaen-22-amine]: the TPM3-NTRK1-wt/CD74-ROS1-G2032R result is reported as “A (bin A for very high selectivity, ratio>30-fold)”; the TPM3-NTRK1-wt/CD74-ROS1-wt entry is on record as “A (bin A for very high selectivity, ratio>30-fold)”; the TPM3-NTRK1-wt/EML4-ALK-L1196M-G1202R entry is “C (bin C for moderate selectivity, ratio≥1)”; the TPM3-NTRK1-wt/EML4-ALK-wt result is given as “A (bin A for very high selectivity, ratio>30-fold)”.

On to `CCn1nc(C(F)(F)F)c2c1-c1cnc(N)c(c1)O[C@H](C)c1cc(F)ccc1-c1nn(C)cc1C2` [Example 96, (19R)-3-ethyl-16-fluoro-10,19-dimethyl-5-(trifluoromethyl)-20-oxa-3,4,10,11,23-pentaazapentacyclo[19.3.1.0^2,^6.0^8,^12.0^13,^18]pentacosa-1(24),2(6),4,8,11,13,15,17,21(25),22-decaen-22-amine], for which the TPM3-NTRK1-wt/CD74-ROS1-G2032R entry was “A (bin A for very high selectivity, ratio>30-fold)”; the TPM3-NTRK1-wt/CD74-ROS1-wt entry was “A (bin A for very high selectivity, ratio>30-fold)”; the TPM3-NTRK1-wt/EML4-ALK-L1196M-G1202R result is reported as “C (bin C for moderate selectivity, ratio≥1)”; the TPM3-NTRK1-wt/EML4-ALK-wt result is recorded as “A (bin A for very high selectivity, ratio>30-fold)”.

Turning to `Cc1cc2n(n1)-c1ccc(F)cc1[C@@H](C)Oc1cc(cnc1N)-c1c(C#N)nn(C)c1C2` [Example 97, (19R)-22-amino-16-fluoro-5,10,19-trimethyl-20-oxa-4,5,11,12,23-pentaazapentacyclo[19.3.1.0^2,^6.0^8,^12.0^13,^18]pentacosa-1(24),2(6),3,8,10,13,15,17,21(25),22-decaene-3-carbonitrile], the TPM3-NTRK1-wt/CD74-ROS1-G2032R result is recorded as “A (bin A for very high selectivity, ratio>30-fold)”; the TPM3-NTRK1-wt/CD74-ROS1-wt result is reported as “A (bin A for very high selectivity, ratio>30-fold)”; the TPM3-NTRK1-wt/EML4-ALK-L1196M-G1202R result was “B (bin B for high selectivity, ratio>10-fold)”; the TPM3-NTRK1-wt/EML4-ALK-wt entry is given as “A (bin A for very high selectivity, ratio>30-fold)”.

Consider `CCn1ncc2c1-c1cnc(N)c(c1)O[C@H](C)c1cc(F)ccc1-n1nc(OC)cc1C2` [Example 98, (19R)-3-ethyl-16-fluoro-10-methoxy-19-methyl-20-oxa-3,4,11,12,23-pentaazapentacyclo[19.3.1.0^2,^6.0^8,^12.0^13,^18]pentacosa-1(24),2(6),4,8,10,13,15,17,21(25),22-decaen-22-amine], for which the TPM3-NTRK1-wt/CD74-ROS1-G2032R entry is recorded as “A (bin A for very high selectivity, ratio>30-fold)”; the TPM3-NTRK1-wt/CD74-ROS1-wt result is “A (bin A for very high selectivity, ratio>30-fold)”; the TPM3-NTRK1-wt/EML4-ALK-L1196M-G1202R result is “C (bin C for moderate selectivity, ratio≥1)”; the TPM3-NTRK1-wt/EML4-ALK-wt result is “B (bin B for high selectivity, ratio>10-fold)”.
